Results: PubChem BioAssay AID1919001 (Molecular Pharmacology Branch, DTP, NCI, 2023)
“And” between values parts separate entries of the source, which are not always exact repeats. Identical values can stand only once.

Tested on: 699152-130-R-J1-PDC complex spheroid growth
Assay: Anticancer human tumor 699152-130-R-J1-PDC patient-derived pancreatic carcinoma cell line growth inhibition [AhR]
Conditions: for IC50: curve of first compound; for viability, T/C: stronger effect = lower value
Method in brief: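 Agents were dosed in half-log steps down from roughly clinical Cmax, or from 10 microM where Cmax was unknown, alone and with AhR antagonists. Read-out: percent test/control growth of tumor spheroids containing HUVEC and MSC stromal cells.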

[1] = second compound 0.1 µM, first compound 0.0316 µM
[2] = second compound 0.1 µM, first compound 0.1 µM
[3] = second compound 0.1 µM, first compound 0.316 µM
[4] = second compound 0.1 µM, first compound 1 µM
[5] = second compound 0.1 µM, first compound 3.16 µM
[6] = second compound 0.1 µM, first compound 10 µM
[7] = second compound 0.316 µM, first compound 0.0316 µM
[8] = second compound 0.316 µM, first compound 0.1 µM
[9] = second compound 0.316 µM, first compound 0.316 µM
[10] = second compound 0.316 µM, first compound 1 µM
[11] = second compound 0.316 µM, first compound 3.16 µM
[12] = second compound 0.316 µM, first compound 10 µM
[13] = second compound 1 µM, first compound 0.0316 µM
[14] = second compound 1 µM, first compound 0.1 µM
[15] = second compound 1 µM, first compound 0.316 µM
[16] = second compound 1 µM, first compound 1 µM
[17] = second compound 1 µM, first compound 3.16 µM
[18] = second compound 1 µM, first compound 10 µM
[19] = second compound 3.16 µM, first compound 0.0316 µM
[20] = second compound 3.16 µM, first compound 0.1 µM
[21] = second compound 3.16 µM, first compound 0.316 µM
[22] = second compound 3.16 µM, first compound 1 µM
[23] = second compound 3.16 µM, first compound 3.16 µM
[24] = second compound 3.16 µM, first compound 10 µM
[25] = second compound 10 µM, first compound 0.0316 µM
[26] = second compound 10 µM, first compound 0.1 µM
[27] = second compound 10 µM, first compound 0.316 µM
[28] = second compound 10 µM, first compound 1 µM
[29] = second compound 10 µM, first compound 3.16 µM
[30] = second compound 10 µM, first compound 10 µM
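Also: compound exposure lasted 7 days after spheroids had grown for 3 days.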

CC1(C)CCC(CN2CCN(c3ccc(C(=O)NS(=O)(=O)c4ccc(NCC5CCOCC5)c([N+](=O)[O-])c4)c(Oc4cnc5[nH]ccc5c4)c3)CC2)=C(c2ccc(Cl)cc2)C1 + Cc1ccccc1N=Nc1ccc(NC(=O)c2ccnn2C)c(C)c1 was tested, and the IC50 (second compound 0.1 µM) was > 10000 nM, the IC50 (second compound 0.316 µM) was > 10000 nM and the IC50 (second compound 1 µM) was > 10000 nM. The IC50 (second compound 3.16 µM) was > 10000 nM, the IC50 (second compound 10 µM) was > 10000 nM and the viability, T/C [1] was 93.7%. It also gave a viability, T/C [2] of 102%, a viability, T/C [3] of 103% and a viability, T/C [4] of 95.9%. It also gave a viability, T/C [5] of 101%, a viability, T/C [6] of 68% and a viability, T/C [7] of 93.2%. It also gave a viability, T/C [8] of 103%, a viability, T/C [9] of 95.9% and a viability, T/C [10] of 95.5%. It also gave a viability, T/C [11] of 93.5%, a viability, T/C [12] of 74% and a viability, T/C [13] of 103%. It also gave a viability, T/C [14] of 101%, a viability, T/C [15] of 104% and a viability, T/C [16] of 102%. The viability, T/C [17] was 101%, the viability, T/C [18] was 65.8% and the viability, T/C [19] was 107%. The viability, T/C [20] was 95.2%, the viability, T/C [21] was 118% and the viability, T/C [22] was 102%. The viability, T/C [23] was 86.5%, the viability, T/C [24] was 71.8% and the viability, T/C [25] was 114%. The viability, T/C [26] was 124%, the viability, T/C [27] was 118% and the viability, T/C [28] was 113%. For the same molecule, the viability, T/C [29] was 108% and the viability, T/C [30] was 68.2%.

With Nc1ccn(C2OC(CO)C(O)C2(F)F)c(=O)n1 (stereo unspecified) the viability, T/C (compound 0.0316 µM) was 74.1% and 75.2% and 60.5%, the viability, T/C (compound 0.1 µM) was 65.7% and 65.9% and 56.8% and the viability, T/C (compound 0.316 µM) was 48.5% and 56.9% and 47.4%. The viability, T/C (compound 1 µM) was 51.8% and 50.9% and 45.2%, the viability, T/C (compound 3.16 µM) was 42.4% and 53.5% and 42.6% and the viability, T/C (compound 10 µM) was 39.8% and 48.5% and 36.5%.

COc1cccc2c1C(=O)c1c(O)c3c(c(O)c1C2=O)CC(O)(C(=O)CO)CC3OC1CC(N)C(O)C(C)O1 (stereo unspecified) + Cc1ccccc1N=Nc1ccc(NC(=O)c2ccnn2C)c(C)c1 showed an IC50 (second compound 0.1 µM) of 214 nM, an IC50 (second compound 0.316 µM) of 285 nM and an IC50 (second compound 1 µM) of 228 nM. For the same molecule, the IC50 (second compound 3.16 µM) was 154 nM, the IC50 (second compound 10 µM) was 213 nM and the viability, T/C [1] was 65.5%. For the same molecule, the viability, T/C [2] was 59.3%, the viability, T/C [3] was 44% and the viability, T/C [4] was 25.2%. The viability, T/C [5] was 4.33%, the viability, T/C [6] was 8.93% and the viability, T/C [7] was 58.8%. The viability, T/C [8] was 58.8%, the viability, T/C [9] was 45.8% and the viability, T/C [10] was 30.2%. The viability, T/C [11] was 2.54%, the viability, T/C [12] was 9.1% and the viability, T/C [13] was 65.5%. For the same molecule, the viability, T/C [14] was 62.9%, the viability, T/C [15] was 43% and the viability, T/C [16] was 26.5%. The viability, T/C [17] was 4.29%, the viability, T/C [18] was 6.64% and the viability, T/C [19] was 62.1%. The viability, T/C [20] was 53.2%, the viability, T/C [21] was 40.9% and the viability, T/C [22] was 26.1%. It also gave a viability, T/C [23] of 2.91%, a viability, T/C [24] of 8.18% and a viability, T/C [25] of 74.4%. It also gave a viability, T/C [26] of 63.1%, a viability, T/C [27] of 42.6% and a viability, T/C [28] of 22.7%. For the same molecule, the viability, T/C [29] was 4.35% and the viability, T/C [30] was 10.2%.
